Laboratory results published in patent US20050176746A1, “Use of compounds that are effective as selective opiate receptor modulators” (priority 2002, published 2005).

Experiments:
[1] = test system: healthy subjects; experiment: Satiety test (nutrient drink; maximum volume ingested and postprandial symptoms), Phase I study, 7-day treatment; assay type: in vivo, human
Excerpt: (§1) A a single center, randomized, double-blind, placebo controlled, parallel group Phase I study has been performed. The trial evaluates the effects of a 7-day treatment with 2 different doses of the peripherally selective opiate receptor modulator asimadoline (N-methyl-N-[(1S)-1-phenyl-2-((3S)-3-hydroxypyrrolidin-1-yl)ethyl]-2,2-diphenylacetamide hydrochloride, EMD 61 753) on gastrointestinal and colonic transit and sensorimotor functions in healthy subjects in comparison to placebo.
All subjects have undergone a satiety test prior to and under medication, a scintigraphic gastric and colonic transit test, and, after overnight bowel preparation, a barostat test assessing colonic compliance and colonic sensation prior to and under medication, and fasting colonic tone and colonic response to a standardized meal under medication.
Specific aims of this study have been the comparison of the effects of 7 day treatment with placebo and three doses of asimadoline as described above on: • satiety after ingestion of a nutrient drink • colonic aggregate sensation score in response to distension in healthy subjects • thresholds for colonic sensation of gas and pain in response to distension in healthy subjects • fasting colonic compliance and tone • postprandial tonic response to standard meal ingestion
(§2) A further aim of the study was to compare the gastrointestinal and colonic transit profiles during the 7-day treatment. The studies on lower dosage (0.15 mg/kg and 0.5 mg/kg versus placebo) were performed separately as Part A and the studies on higher dosage (1.5 mg/kg versus placebo) were performed separately as Part B of the studies (see FIGS. 1 to 4).
The primary endpoint in the satiety test is difference to baseline in the aggregate satiety score 30 min after full satiety.
The analysis of primary motility endpoints (gastric residual percent at 2 hrs, colonic filling (CF) percent at 6 hrs. and colonic geometric center at 24 hrs)and the maximum satiety volume (at day 5) is based on one-way analysis of variance or analysis of covariance methods. The proportions (GE at 2 hrs and CF at 6 hrs)may warrant transformation (e.g., sin^−1{square root}) prior to analysis to stabilize variation across treatment groups. Analysis of the satiety volumes incorporates the baseline value as a covariate in addition to BMI; or alternatively, the relative changes (log [day 5 volume/baseline volume]) are analyzed with BMI as a covariate.

[2] = test system: colon of healthy subjects; experiment: Barostat test (intubated colonic procedure: fasting colonic volume, sensation and pain to distension), Phase I study, 7-day treatment; assay type: in vivo, human; parameters: key to sensation to distension (VAS score) / pain to distension (VAS score): 100 mm visual analog scale
Excerpt: as §1, §2
All subjects are presented to the General Clinical Research Center at Charlton 7, General Clinical Research Center, on visit 3 after overnight bowel preparation with the oral colonic lavage solution (2-5 L of polyethylene glycol 3350 and electrolyte solution, NuLytely™, Abbott Laboratories, Chicago. IL), and a 12-hour fast.
Flexible colonoscopy is performed to evaluate the left side of the colon and to place a teflon guidewire into the proximal colon under fluoroscopic control. The endoscope is withdrawn.
A barostat catheter is inserted into the colon along the guidewire so that the barostat balloon is located in the upper sigmoid or descending colon. The catheter is connected to a barostat machine using an infinitely compliant 10-cm long balloon with a maximum volume of 600 cc (Hefty Baggies, Mobil Chemical Co., Pittsford, N.Y.) linked to an electronic barostat (Mayo rigid barostat, Mayo Foundation Engineering Department, Rochester, Minn.) which has a rigid piston. The manometric portion comprises six waterperfused (0.4 ml/min) pneumohydraulic sensors, three in the descending colon (sensor numbers 1-3) and three in the sigmoid colon (sensor numbers 4-6). The manometric sensors are 5 cm apart, while the first and second sensors are 5 cm oral and caudal to the balloon respectively. To decrease the effects of abdominal viscera on the balloon volume, the studies are performed with the subjects in a semi-prone position during the entire duration of the study.
Previous studies have shown that an initial “conditioning” distension to 20 mmHg renders subsequent assessments of compliance and perception more reproducible [15. 47. 48]. Following the conditioning distension, colonic compliance and sensory thresholds are measured by ramp inflation with increments of 4 mmHg, o steps at 30 second intervals from 0 to 44 mmHg; thresholds for first sensation and sensation of pain are thus determined using the ascending method of limits.
Immediately prior to assessment of colonic sensation, four 100 mm visual analog scales (VAS) scales using the anchor points “tired-energetic”, “peaceful-tense” and “worried-relaxed” and “active-drowsy” are used to determine the level of arousal, anxiety or stress being experienced by the subject. […] Subsequently, randomized-order phasic distensions at 8, 16, 24, and 32 mm Hg above operating pressure are applied to measure the sensations of gas or pain.
For rating sensory perception, the participants are asked to mark two separate VAS for abdominal pain and feeling of gas at a standardized time, 20 seconds after the distension had commenced. The VAS are anchored at the ends by the descriptions “unnoticeable” and “unbearable”. During assessment of sensation, verbal interaction between the subject and investigator is minimized.
Colonic sensation is assessed before and 1 h after drug administration during the measurement of colonic compliance. This is equivalent to finding the threshold pressures or the initial perception and pain perception during sequential pressure increments using the ascending method of limits.
The participant is allowed to rest for 15 minutes. […]

## CN(C(=O)C(c1ccccc1)c1ccccc1)[C@H](CN1CC[C@H](O)C1)c1ccccc1.Cl [asimadoline, N-methyl-N-[(1S)-1-phenyl-2-((3S)-3-hydroxypyrrolidin-1-yl)ethyl]-2,2-diphenylacetamide hydrochloride]
[1]; 0.15 mg/kg
  maximum ingested volume versus placebo (in words): increase the maximum ingested volume slightly versus placebo
[1]; 0.15 mg/kg, Part A (placebo 180)
  aggregate postprandial symptoms (VAS score): 187
[1]; 0.15 mg/kg, study Part A (placebo 1280 ml)
  maximum volume ingested (satiety test): 1425 mL
[1]; 0.5 mg/kg
  maximum ingested volume versus placebo (in words): increase the maximum ingested volume significantly versus placebo
[1]; 0.5 mg/kg, Part A (placebo 180)
  aggregate postprandial symptoms (VAS score): 170
[1]; 0.5 mg/kg, study Part A (placebo 1280 ml)
  maximum volume ingested (satiety test): 1470 mL
[1]; 1.5 mg/kg
  postprandial symptoms with higher ingested volume (in words): symptoms increased with increased volume ingested
[1]; 1.5 mg/kg, Part B (placebo 162)
  aggregate postprandial symptoms (VAS score): 192
[1]; 1.5 mg/kg, study Part B (placebo 1300 ml)
  maximum volume ingested (satiety test): 1390 mL
[1]; dosis in the range of 0.5 mg/kg
  postprandial symptoms with higher ingested volume (in words): not associated with an increase in symptoms
[1]; higher concentration (1.5 mg/kg)
  maximum ingested volume, dose dependency (in words): ceiling effect established
[1]; lower end of the dosis range (0.15 mg/kg)
  maximum ingested volume, dose dependency (in words): dose response effect established
[2]; 0.15 mg/kg, Part A (placebo 1 ml)
  fasting volume of the colon at 0 mm pressure: 8 mL
[2]; 0.5 mg/kg
  fasting volume versus placebo (in words): significantly higher
[2]; 0.5 mg/kg, Part A (placebo 1 ml)
  fasting volume of the colon at 0 mm pressure: 21 mL
[2]; 0.5 mg/kg, low pressure (8 mm Hg), effect decreases by increasing pressure
  perception of distension (in words): significantly reduced
[2]; 1.5 mg/kg, Part B (placebo 6 ml)
  fasting volume of the colon at 0 mm pressure: 24 mL
[2]; 8 mm Hg, 0.15 mg/kg, Part A (placebo 22)
  pain to distension (VAS score): 25
[2]; 8 mm Hg, 0.15 mg/kg, Part A (placebo 37)
  sensation to distension (VAS score): 38
[2]; 8 mm Hg, 0.5 mg/kg, Part A (placebo 22)
  pain to distension (VAS score): 18
[2]; 8 mm Hg, 0.5 mg/kg, Part A (placebo 37)
  sensation to distension (VAS score): 26
[2]; 8 mm Hg, 1.5 mg/kg, Part B (placebo 14)
  pain to distension (VAS score): 30
[2]; 8 mm Hg, 1.5 mg/kg, Part B (placebo 20)
  sensation to distension (VAS score): 31
[2]; 16 mm Hg, 0.15 mg/kg, Part A (placebo 33)
  pain to distension (VAS score): 28
[2]; 16 mm Hg, 0.15 mg/kg, Part A (placebo 43)
  sensation to distension (VAS score): 37
[2]; 16 mm Hg, 0.5 mg/kg, Part A (placebo 33)
  pain to distension (VAS score): 28
[2]; 16 mm Hg, 0.5 mg/kg, Part A (placebo 43)
  sensation to distension (VAS score): 37
[2]; 16 mm Hg, 1.5 mg/kg, Part B (placebo 21)
  pain to distension (VAS score): 37
[2]; 16 mm Hg, 1.5 mg/kg, Part B (placebo 23)
  sensation to distension (VAS score): 38
[2]; 24 mm Hg, 0.15 mg/kg, Part A (placebo 38)
  pain to distension (VAS score): 30
[2]; 24 mm Hg, 0.15 mg/kg, Part A (placebo 43)
  sensation to distension (VAS score): 45
[2]; 24 mm Hg, 0.5 mg/kg, Part A (placebo 38)
  pain to distension (VAS score): 32
[2]; 24 mm Hg, 0.5 mg/kg, Part A (placebo 43)
  sensation to distension (VAS score): 41
[2]; 24 mm Hg, 1.5 mg/kg, Part B (placebo 30)
  pain to distension (VAS score): 40
[2]; 24 mm Hg, 1.5 mg/kg, Part B (placebo 42)
  sensation to distension (VAS score): 41
[2]; 32 mm Hg, 0.15 mg/kg, Part A (placebo 48)
  pain to distension (VAS score): 42
[2]; 32 mm Hg, 0.15 mg/kg, Part A (placebo 54)
  sensation to distension (VAS score): 53
[2]; 32 mm Hg, 0.5 mg/kg, Part A (placebo 48)
  pain to distension (VAS score): 38
[2]; 32 mm Hg, 0.5 mg/kg, Part A (placebo 54)
  sensation to distension (VAS score): 47
[2]; 32 mm Hg, 1.5 mg/kg, Part B (placebo 43)
  pain to distension (VAS score): 47
[2]; 32 mm Hg, 1.5 mg/kg, Part B (placebo 51)
  sensation to distension (VAS score): 43
[2]; Barostat test, no dose stated
  perception of pain (in words): no significant reduction in the perception of pain could be observed
[2]; higher doses (1.5 mg/kg)
  scores for pain and sensation versus placebo (in words): significantly higher scores for pain and sensation were observed versus placebo
